The values below come from PubChem BioAssay (NCI).

The structures appear in SMILES notation.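 How tested: cells in 96-well plates exposed to compound for 48 hours at five concentrations. TGI is the concentration that stops growth completely.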 Some results are limits rather than exact numbers.

Assay in all cases: growth of human tumour cells (NCI), 48 h
Test [1] has as its system SF-539 CNS.
Test [2] concerns KM12 colon.
For test [3], the system named is NCI-H226 lung.
Test [4] deals with SN12C renal.
Test [5] concerns RXF 393 renal.
The subject of test [6] is HOP-62 NSCLC.
Test [7] relates to NCI-H522 lung.
Test [8] deals with UO-31 renal.
The test system of test [9] is ACHN renal.
Test [10] has as its system M19-MEL melanoma.

In the case of `Clc1ccc(-c2nnc(-c3nn(-c4ccccc4)c4nc5ccccc5nc34)o2)cc1`, the TGI in test [1], in test [2], in test [3], in test [4], in test [5] and in test [6] was over 100 µM each time. Moreover, the TGI in test [7], in [8], in [9] and in test [10] was over 100 µM throughout.
Turning to `CCCCN(C)CC(C(C)=O)C(c1ccccc1)c1c(O)c2ccccc2oc1=O` (stereo not given), the TGI in test [1], in test [2], in [3], in test [4], in test [5] and in test [6] was over 100 µM throughout. Also, the TGI in test [7], in [8], in test [9] and in [10] was over 100 µM in each case.
In the case of `CC(C)(C)OC(=O)NC(Cc1ccccc1)C(=S)N1CCCC1` (stereo not given), the TGI in [1] is over 100 µM; in test [2], over 100 µM; in test [3] it was over 100 µM; in [4], over 100 µM; in [5], over 100 µM; in test [6], 91 µM. For the same compound, the TGI in [7] was 96.9 µM; in test [8], over 100 µM; in test [9], over 100 µM; in test [10], over 100 µM.
For the compound `C/C(=N\NC(=O)c1ccccc1O)c1c(O)cc(C)oc1=O`, the TGI in test [1], in test [2], in [3], in test [4], in test [5] and in test [6] was over 100 µM throughout. In addition, the TGI in test [7], in test [8], in test [9] and in test [10] was over 100 µM each time.
For the compound `Cn1c(=O)nc2n(-c3ccc(F)c(F)c3)c3ccccc3nc-2c1=O`, the TGI in test [1] was over 100 µM; in test [2], over 100 µM; in test [3], over 100 µM; in test [4], 53.8 µM; in [5] it was 72.5 µM; in test [6] it was over 100 µM. The TGI in [7] was 25.8 µM; in test [8] it was over 100 µM; in test [9], 37.2 µM; in [10], 3.44 µM.
In the case of `Cc1ccc(NC(=O)C(=O)C2C(=O)NC(=O)NC2=O)c(C)c1`, the TGI in [1] is over 100 µM; in test [2], over 100 µM; in [3], 37.8 µM; in test [4] it was 28.2 µM; in test [5] it was over 100 µM; in test [6], over 100 µM. Moreover, the TGI in test [7], in test [8], in test [9] and in test [10] was over 100 µM each time.
Take `COc1ccc2c(c1)c1ccc3c(c1n2C)C(=O)C=CC3=O`: the TGI was 28 µM in [1]; 35.8 µM in test [2]; 32.8 µM in test [3]; 15.6 µM in [4]; 10.4 µM in test [5]; 66.5 µM in test [6]. Further, the TGI was 7.35 µM in test [7], 24.5 µM in [8], 14.9 µM in [9] and over 58.9 µM in test [10].
In the case of `NC1=C(O)/C(=N/NS(=O)(=O)c2ccccc2)C(c2ccc3c(c2)OCO3)O1` (stereo not given), the TGI in [1], in test [2], in test [3], in test [4], in [5] and in test [6] was over 100 µM in each case. Also, the TGI is over 100 µM in [7], over 100 µM in [8], over 100 µM in test [9] and 83.4 µM in test [10].
